Assay results: US5010104A, “Tricyclic compounds” (Kyowa Hakko Kogyo Co., Ltd., priority 1987, dated 1991)

Columns and labels:
dd strain male mice = assay: Acute Toxicity Test: minimum lethal dose, mortality observed for seven days; type: in vivo; settings: mortality over seven days; for Acute Toxicity (MLD) ip: intraperitoneal (ip; 100 mg/kg); for Acute Toxicity (MLD) po: oral (po; 300 mg/kg)
Method: Using three dd strain male mice weighing 20±1 g, a test compound was orally (po; 300 mg/kg) or intraperiotoneally (ip; 100 mg/kg) administered. MLD (the minimum lethal dose) was determined by observing the mortality for seven days after administration.

[1] = target: T1, TXA2 /prostaglandin H2 receptor (Cavia porcellus, UniProt A0A286Y4I8); assay: Test on Anti-platelet Activity (TXA2 Antagonizing Test): inhibition of U-46619-induced platelet aggregation in guinea pig platelet rich plasma; type: cell-based; settings: minimum concentration inhibiting platelet aggregation by 30% or more; U-46619 0.5-1 μM; guinea pig PRP; 3 minutes pretreatment
T1 construct: platelet rich plasma (PRP) was collected; endogenous in cells; host or cells: platelets in platelet rich plasma from male guinea pigs (Hartley strain)
T1 sequence (A0A286Y4I8 1-347): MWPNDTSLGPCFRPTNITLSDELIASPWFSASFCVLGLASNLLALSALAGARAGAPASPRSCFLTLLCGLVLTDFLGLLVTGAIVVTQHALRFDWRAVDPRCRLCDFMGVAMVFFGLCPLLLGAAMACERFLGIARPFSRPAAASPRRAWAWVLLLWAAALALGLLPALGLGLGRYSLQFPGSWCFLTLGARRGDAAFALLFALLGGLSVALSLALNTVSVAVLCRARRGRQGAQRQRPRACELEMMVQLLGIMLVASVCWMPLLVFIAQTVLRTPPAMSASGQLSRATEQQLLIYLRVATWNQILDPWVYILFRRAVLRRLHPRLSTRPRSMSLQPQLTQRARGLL
Method: Test on Anti-platelet Activity (TXA2 Antagonizing Test)
Using guinea pig platelet, influence of the compounds in accordance with the present invention on platelet aggregation induced by U-46619 (9,11-dideoxy-9α,11a-methanoepoxyprostaglandin F2 α; manufactured by Cayman Chemica Co., Ltd. ) which was a TXA2 /prostaglandin H2 receptor stimulant was examined.
Male guinea pig (Hartlet strain; body weight, 300 to 600 g) was anesthesized by intraperitoneal administration of sodium pentobarbital (30 mg/kg) and blood was collected from the descending aorta of the abdomen with a 1/10 volume of sodium citrate. By centrifugation (KC-70: manufactured by Kubota Co., Ltd.) at 800 rpm for 10 minutes, platelet rich plasma (PRP) was collected. Platelet aggregation induced by U-46619 (0.5-1 μM) was determined by photometry [Born, G. V. R. et al., Nature (London), 194, 927-929 (1962)]. A test compound was pretreated before 3 minutes and an ability of inhibiting aggregation was measured. The minimum concentration of inhibiting platelet aggregation by 30% or more was defined as the minimum effective concentration (MEC) of the test compound.

## O=C(O)COc1ccc(CCNS(=O)(=O)c2ccccc2)cc1 [BM13177, reference compound]
Dd strain male mice
  Acute Toxicity (MLD) ip: > 100 mg/kg
  Acute Toxicity (MLD) po: > 300 mg/kg
[1]
  TXA2 Antagonizing Activity (MEC): 3 µg/mL

## O=C(O)c1ccc2c(c1)C(SCCNS(=O)(=O)c1cccc3cccnc13)c1ccccc1CO2 (stereo not drawn) [Compound 16b, 11-[2-[(8-Quinolylsulfonyl)amino]ethyl]thio-6,11-dihydrodibenz[b,e]oxepin-2-carboxylic acid]
Dd strain male mice
  Acute Toxicity (MLD) ip: > 100 mg/kg
  Acute Toxicity (MLD) po: > 300 mg/kg
[1]
  TXA2 Antagonizing Activity (MEC): 3 µg/mL

## O=C(O)c1ccc2c(c1)C(SCCNS(=O)(=O)c1cccs1)c1ccccc1CO2 (stereo not drawn) [Compound 15b, 11-[2-[(2-Thienylsulfonyl)amino]ethyl]thio-6,11-dihydrodibenz[b,e]oxepin-2-carboxylic acid]
Dd strain male mice
  Acute Toxicity (MLD) ip: > 100 mg/kg
  Acute Toxicity (MLD) po: > 300 mg/kg
[1]
  TXA2 Antagonizing Activity (MEC): 0.3 µg/mL

## O=C(O)c1ccc2c(c1)C(SCCNS(=O)(=O)c1ccccc1)c1ccccc1CS2 (stereo not drawn) [Compound 55b, 11-[2-[(Phenylsulfonyl)amino]ethyl]thio-6,11-dihydrodibenzo[b,e]thiepin-2carboxylic acid]
Dd strain male mice
  Acute Toxicity (MLD) ip: > 100 mg/kg
  Acute Toxicity (MLD) po: > 300 mg/kg
[1]
  TXA2 Antagonizing Activity (MEC): 3 µg/mL

## O=C(O)Cc1ccc2c(c1)/C(=C/CCNS(=O)(=O)c1ccccc1)c1ccccc1CO2 [Compound E-29b]
Dd strain male mice
  Acute Toxicity (MLD) ip: > 100 mg/kg
  Acute Toxicity (MLD) po: > 300 mg/kg
[1]
  TXA2 Antagonizing Activity (MEC): 1 µg/mL

## COc1ccccc1C(=O)NCCSC1c2ccccc2COc2ccc(C(=O)O)cc21 (stereo not drawn) [Compound 33b, 11-[2-[(2-Methoxybenzoyl)amino]ethyl]thio-6,11-dihydrodibenz[b,e]oxepin-2-carboxylic acid]
Dd strain male mice
  Acute Toxicity (MLD) ip: > 100 mg/kg
  Acute Toxicity (MLD) po: > 300 mg/kg
[1]
  TXA2 Antagonizing Activity (MEC): 0.3 µg/mL

## O=C(O)c1ccc2c(c1)C(SCCNS(=O)(=O)c1ccccc1)c1cc(Br)ccc1CO2 (stereo not drawn) [Compound 6b, 9-Bromo-11-[2-[(phenylsulfonyl)amino]ethyl]thio-6,11-dihydrodibenz[b,e]oxepin-2-carboxylic acid]
Dd strain male mice
  Acute Toxicity (MLD) ip: > 100 mg/kg
  Acute Toxicity (MLD) po: > 300 mg/kg
[1]
  TXA2 Antagonizing Activity (MEC): 0.03 µg/mL

## O=C(O)c1ccc2c(c1)C(SCCNS(=O)(=O)c1ccc(F)cc1)c1ccccc1CO2 (stereo not drawn) [Compound 10b, 11-[2-[(4-Fluorophenylsulfonyl)amino]ethyl]thio-6,11-dihydrodibenz[b,e]oxepin-2-carboxylic acid]
Dd strain male mice
  Acute Toxicity (MLD) ip: > 100 mg/kg
  Acute Toxicity (MLD) po: > 300 mg/kg
[1]
  TXA2 Antagonizing Activity (MEC): 0.3 µg/mL
